Target: G-protein coupled receptor 52 (Homo sapiens, UniProt Q9Y2T5)
Experiment: Antagonist activity at GPR52 (unknown origin) expressed in HEK293 cells assessed as inhibition of WO459-induced cAMP accumulation preincubated for 15 mins followed by WO459 addition and measured after 30 mins by LANCE Ultra cAMP kit based microplate reader analysis
Type: functional, cell-based
Details: read-out: IC50

Chain of G-protein coupled receptor 52 (Q9Y2T5 whole entry): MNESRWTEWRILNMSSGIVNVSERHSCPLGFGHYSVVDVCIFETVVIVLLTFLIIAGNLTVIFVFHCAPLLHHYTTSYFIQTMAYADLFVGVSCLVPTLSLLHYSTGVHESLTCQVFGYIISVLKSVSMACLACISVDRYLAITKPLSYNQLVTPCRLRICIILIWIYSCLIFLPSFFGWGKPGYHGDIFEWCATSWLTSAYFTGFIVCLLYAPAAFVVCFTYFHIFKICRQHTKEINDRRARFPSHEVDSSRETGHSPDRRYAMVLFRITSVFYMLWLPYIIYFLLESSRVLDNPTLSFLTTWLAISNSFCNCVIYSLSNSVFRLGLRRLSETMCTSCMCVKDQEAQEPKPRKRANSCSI

Row | IC50 | SMILES
1 | 2370 nM | O=C(/C=C/CCc1ccccc1)c1cccc(F)c1
2 | 1230 nM | O=C(/C=C/CCc1ccccc1)c1ccccc1-c1ccccc1
3 | 1520 nM | O=C(/C=C/CCc1ccccc1)c1ccoc1

Reference: ChEMBL document CHEMBL4706623, “GPR52 Antagonist Reduces Huntingtin Levels and Ameliorates Huntington's Disease-Related Phenotypes” (J Med Chem, 2021)
